Experimental data taken from patent US20070274923A1, “Non-invasive real-time in vivo bioluminescence imaging of local Ca2+ dynamics in living organisms” (priority 2005, published 2007).

How the values were obtained:
[1] = test system: Ca^2+ oscillations in somatosensory cortex slices; experiment: Mitochondrial Ca2+ oscillations in organotypic somatosensory cortex slices of mtGA transgenic mice (bioluminescence imaging); assay type: cell-based, mouse; settings: 50 μM; oscillations generated by removal of Mg2+ from buffer; slices of P4 mtGA mice
cortical neurons = experiment: Single-cell bioluminescence imaging of transfected cortical neurons; assay type: cell-based; settings: cortical neurons with non-targeted GA reconstituted with h coelenterazine
Description: Cultures were plated on to glass-bottomed dishes and mounted to a stage adapter on a fully automated inverted microscope mounted in a black-box. GFP-Aequorin was reconstituted with 2.5-5 μM coelenterazine for 30 minutes at 37° C. Incubation of cells with coelenterazine that had been transfected with SynGA was undertaken at room temperature to reduce the consumption of the photoprotein during the reconstitution process. Cells were perfused with tyrodes buffer. Prior to bath application of NMDA, cells were perfused for 1 minute without Mg^2+. All recordings were made at room temperature (22-25° C.). […]
The fluorescence/bioluminescence wide field microscopy system was custom built by ScienceWares, Inc. The system includes a fully automated inverted microscope (200M, Zeiss Germany) and is housed in a light-tight dark box. […] Low level light emission (photon rate<100 kHz), was collected using an Image Photon Detector (IPD 3, Photek Ltd.) connected to the baseport of the microscope, which assigns an X, Y coordinate and time point for each detected photon (Miller et al., 1994). The system is fully controlled by the data acquisition software, which also converts single photon events into an image that can be superimposed with brightfield or fluorescence images made by a connected CCD camera to the C-port (Coolsnap HQ, Roper Scientific). […]

N[C@H](CCCP(=O)(O)O)C(=O)O [D-APV]
effect on Ca2+ oscillations detected within the mitochondrial matrix [1]: completely and reversibly blocked

[Cl-].[K+] [KCl]
Ca2+-induced bioluminescence signal (cortical neurons; 90 mM): robust signal

CN[C@H](CC(=O)O)C(=O)O [NMDA]
Ca2+-induced bioluminescence signal (cortical neurons; 100 μM): robust signal
